Measured values reported in patent US8518947B2, “(Heterocycle/tetrahydropyridine)-(piperazinyl)-1-alcanone and (heterocycle/dihydropyrrolidine)-(piperazinyl)-1-alcanone derivatives, and use thereof as p75 inhibitors” (Sanofi, priority 2009, dated 2013).

What was measured:
p75^NTR receptor = target: T1, p75^NTR receptor (Homo sapiens, UniProt P08138); assay: Study of the dimerization of the p75NTR receptor independently of its ligand (binding of soluble p75NTR-alkaline phosphatase to SK-N-BE Bep 75 cells); conditions: 1 hour preincubation at 37° C., soluble p75NTR-alkaline phosphatase 10 nM
T1 construct: the clone Bep 75, stably expressing the complete form of the human p75^NTR receptor; expressed in transfected cells; host or cells: SK-N-BE Bep 75 (human neuroblastoma clone stably expressing the receptor); the soluble p75NTR-AP came from the supernatant of transiently transfected HEK293 cells
T1 sequence (P08138 29-427): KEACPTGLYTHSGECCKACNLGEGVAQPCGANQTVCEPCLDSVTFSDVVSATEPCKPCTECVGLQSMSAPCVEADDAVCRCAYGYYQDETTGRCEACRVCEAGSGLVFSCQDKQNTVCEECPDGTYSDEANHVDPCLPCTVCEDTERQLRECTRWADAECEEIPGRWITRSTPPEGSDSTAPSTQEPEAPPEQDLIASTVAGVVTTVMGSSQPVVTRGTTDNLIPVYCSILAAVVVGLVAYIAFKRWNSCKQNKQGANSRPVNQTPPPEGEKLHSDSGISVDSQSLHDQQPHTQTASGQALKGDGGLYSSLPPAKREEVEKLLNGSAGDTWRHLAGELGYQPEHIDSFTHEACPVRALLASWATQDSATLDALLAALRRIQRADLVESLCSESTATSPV
Procedure: (§1) The SK-N-BE parent strain (human neuroblastoma) and the clone Bep 75, stably expressing the complete form of the human p75^NTR receptor (SK-N-BE Bep 75) are conventionally cultured in an RPMI culture medium containing FCS (5%), sodium pyruvate (1 mM) and glutamine (4 mM). For the SK-N-BE Bep 75 cells, hygromycin (200 μl/20 ml of medium) is added as selection agent.
Study of the Dimerization of the p75^NTR Receptor Independently of its Ligand
The study of the dimerization of the p75^NTR receptor is performed on a cell suspension of the strain SK-N-BE Bep 75. The cells (2.5×10^4 cells/well) are placed in wells (96-well plate) for 24 hours, and then preincubated for 1 hour at 37° C. in the presence or absence of the compounds according to the invention. Supernatent, obtained from a culture of human cells of HEK293 renal origin expressing, after 48 hours of transfection, and secreting a soluble form of the p75^NTR receptor (extracellular part of the receptor) coupled to an alkaline phosphatase, the latter at a final concentration of 10 nM, is then added. The quantification of the specific binding of the soluble receptor to the receptor present on SK-N-BE Bep 75 cells is determined by measuring the enzyme activity of the alkaline phosphatase after incubation of the cells for 1 hour at 37° C. in the presence of the supernatant. After filtering and transferring the filters into 24-well plates, the alkaline phosphatase activity is determined by adding CDP-Star chemoluminescent substrate (ready-to-use, Roche).

[1] = test system: strains of human neuroblastomas SH-SY-5Y and SK-N-BE Bep 75; assay: Measurement of the apoptosis (cell death detection ELISA, cytoplasmic histones associated with DNA fragments); assay type: cell-based; conditions: SH-SY-5Y (48 hours) and SK-N-BE Bep 75 (24 hours), NGF 10 ng/ml or beta-amyloid peptide 10 μM, cell line not stated, read-out: IC50 in the apoptosis test
Procedure: The SH-SY-5Y strain (human neuroblastoma) is conventionally cultured in a DMEM culture medium (Dulbecco's Modified Eagle's Medium) (Gibco BRL, France) containing FCS (5%) (fetal calf serum) (Boehringer Mannheim, Germany), sodium pyruvate (1 mM) and glutamine (4 mM) in collagen-covered culture flasks (Becton Dickinson, France).
as §1
Measurement of the Apoptosis
The cells (strains of human neuroblastomas SH-SY-5Y and SK-N-BE Bep 75) are placed in Petri dishes 35 mm in diameter (Biocoat collagenl, (10^5 cells/well)) in a suitable culture medium containing 5% FCS, for 24 hours. The culture medium is then removed, the cells are rinsed with PBS (Dulbecco's Phosphate-buffered saline), and then either fresh medium containing 5% FCS, or medium containing NGF (at a concentration of 10 ng/ml), or beta-amyloid peptide (A1β1-40) (at a concentration of 10 μM) is then added, in the presence or absence of the compounds according to the invention. The apoptosis levels are measured 48 hours after the treatments in the case of the strain SH-SY-5Y, and 24 hours later in the case of the strain SK-N-BE Bep 75, by quantifying the cytoplasmic histones associated with the DNA fragments (cell death detection ELISA, Boehringer Mannheim, Germany). The apoptosis levels are expressed as the amount of oligonucleosomes/10^5 cells. Each value corresponds to the average of 9 experimental points distributed over 3 independent experiments.

Structure (SMILES)	IC50 (p75^NTR receptor)	IC50 [1]	melting point
CC1CN(c2cnccn2)CC(C)N1CC(=O)N1CC=C(c2cccc3ccsc23)CC1 (stereo not drawn) [Compound 1, 1-(4-benzo[b]thiophen-7-yl-3,6-dihydro-2H-pyridin-1-yl)-2-(3,5-dimethyl-2,3,5,6-tetrahydro[1,2′]bipyrazinyl-4-yl)ethanone]	0.08 nM	–	–
C[C@@H]1CN(c2ccc(C(F)(F)F)cn2)[C@@H](C)CN1CC(=O)N1CC=C(c2cccc3ccoc23)CC1 [Compound 14, 1-(4-benzofuran-7-yl-3,6-dihydro-2H-pyridin-1-yl)-2-[(2R,5S)-2,5-dimethyl-4-(5-trifluoromethylpyridin-2-yl)piperazin-1-yl]ethanone]	1.09 nM	1.33 nM	–
C[C@@H]1CN(c2ccc3ccccc3n2)C[C@H](C)N1CC(=O)N1CC=C(c2cccc3ccsc23)CC1 [Compound 19, 1-(4-benzo[b]thiophen-7-yl-3,6-dihydro-2H-pyridin-1-yl)-2-((2S,6R)-2,6-dimethyl-4-quinolin-2-ylpiperazin-1-yl)ethanone]	–	1.07 nM	–
C[C@@H]1CN(c2ccc(C(F)(F)F)cn2)C[C@H](C)N1CC(=O)N1CC=C(c2cccc3ccoc23)CC1 [Compound 34, 1-(4-benzofuran-7-yl-3,6-dihydro-2H-pyridin-1-yl)-2-[(2S,6R)-2,6-dimethyl-4-(5-trifluoromethylpyridin-2-yl)piperazin-1-yl]ethanone]	0.94 nM	3.39 nM	138 to 139 °C
C[C@@H]1CN(c2ncc(F)cn2)C[C@H](C)N1CC(=O)N1CC=C(c2cccc3ccoc23)CC1 [Compound 36, 1-(4-benzofuran-7-yl-3,6-dihydro-2H-pyridin-1-yl)-2-[(2S,6R)-4-(5-fluoropyrimidin-2-yl)-2,6-dimethylpiperazin-1-yl]ethanone]	20 nM	–	–
Cc1cc2cc(C3=CCN(C(=O)CN4CCN(c5ccc6ccccc6n5)CC4)CC3)ccc2s1 [Compound 114, 1-[4-(2-methylbenzo[b]thiophen-5-yl)-3,6-dihydro-2H-pyridin-1-yl]-2-(4-quinolin-2-ylpiperazin-1-yl)ethanone]	–	–	189 to 190 °C
Cc1cc2cc(C3=CCN(C(=O)CN4CCN(c5cccc(C(F)(F)F)n5)CC4)CC3)ccc2s1 [Compound 116, 1-[4-(2-methylbenzo[b]thiophen-5-yl)-3,6-dihydro-2H-pyridin-1-yl]-2-[4-(6-trifluoromethylpyridin-2-yl)piperazin-1-yl]ethanone]	–	–	121 to 123 °C
Cc1cc2cc(C3=CCN(C(=O)CN4CCN(c5ccnc6cc(Cl)ccc56)CC4)CC3)ccc2s1 [Compound 117, 2-[4-(7-chloroquinolin-4-yl)piperazin-1-yl]-1-[4-(2-methylbenzo[b]thiophen-5-yl)-3,6-dihydro-2H-pyridin-1-yl]ethanone]	–	–	90 to 93 °C
O=C(CN1CCN(c2ccc(C(F)(F)F)cn2)C(=O)C1)N1CC=C(c2nccc3sccc23)CC1 [Compound 118, 4-[2-oxo-2-(4-thieno[3,2-c]pyridin-4-yl-3,6-dihydro-2H-pyridin-1-yl)ethyl]-1-(5-trifluoromethylpyridin-2-yl)piperazin-2-one]	–	–	145 to 148 °C
